Results published in patent US20210047304A1, “Bromodomain Inhibitors” (AbbVie Inc., priority 2016, published 2021).

Target: BRD4 (BDI_K57-E168) (Homo sapiens, UniProt O60885)
Assay: TR-FRET bromodomain binding assay, BRD4 BDI
Experimental: A time-resolved fluorescence resonance energy transfer (TR-FRET) assay was used to determine the affinities of compounds of the Examples listed in Table 1 for each bromodomain of BRD4. […] An Alexa647-labeled BET-inhibitor was used as the fluorescent probe in the assay.
(§1) Compound dilution series were prepared in DMSO via an approximately 3-fold serial dilution. Compound dilutions were added directly into white, low-volume assay plates (Perkin Elmer Proxiplate 384 Plus #6008280) using a Labcyte Echo in conjunction with Labcyte Access and Thermo Multidrop CombinL robotics. Compounds were then suspended in eight microliters (μL) of assay buffer (20 mM Sodium Phosphate, pH 6.0, 50 mM NaCl, 1 mM Ethylenediaminetetraacetic acid disodium salt dihydrate, 0.01% Triton X-100, 1 mM DL-Dithiothreitol) containing His-tagged bromodomain, Europium-conjugated anti-His antibody (Invitrogen PV5596) and Alexa-647-conjugated probe.
After a one-hour equilibration at room temperature, TR-FRET ratios were determined using an Envision multilabel plate reader (Ex 340, Em 495/520).
TR-FRET data were normalized to the means of 24 no-compound controls (“high”) and 8 controls containing 1 μM un-labeled probe (“low”). Percent inhibition was plotted as a function of compound concentration and the data were fit with the 4 parameter logistic equation to obtain IC50s. Inhibition constants (Ki) were calculated from the IC50s, probe Kd and probe concentration.
Compound dilution series for Compounds A-E were prepared in DMSO via an approximately 3-fold serial dilution from 0.47 mM to 7.8 nM.
as §1, with “Compound” for “Compound dilution series were prepared in DMSO via an approximately 3-fold serial dilution. Compound”
TR-FRET data were normalized to the means of 24 no-compound controls (“high”) and 8 controls containing 1 μM un-labeled probe (“low”). Percent inhibition was plotted as a function of compound concentration and the data were fit with the 4 parameter logistic equation to obtain IC50s. Inhibition constants (Ki) were calculated from the IC50s, probe Kd and probe concentration. Typical Z′ values were between 0.65 and 0.75. The minimum significant ratio was determined to evaluate assay reproducibility (Eastwood et al., (2006) J Biomol Screen, 11: 253-261). The MSR was determined to be 2.03 for BDI and 1.93 for BDII, and a moving MSR (last six run MSR overtime) for both BDI and BDII was typically <3.

| SMILES | Ki |
| --- | --- |
| CC(=O)NC1(C)CCC(Oc2cc(=O)n(C)cc2-c2cc(C(C)(C)O)ccc2Oc2c(C)cc(F)cc2C)CC1 (stereo not drawn) [Example 32, N-[trans-4-({5-[2-(4-fluoro-2,6-dimethylphenoxy)-5-(2-hydroxypropan-2-yl)phenyl]-1-methyl-2-oxo-1,2-dihydropyridin-4-yl}oxy)-1-methylcyclohexyl]acetamide] | 1010 nM |
| CCc1c(-c2cc(C(C)(C)O)ccc2Oc2c(C)cc(F)cc2C)c(O[C@H]2CC[C@H](N3CCCC3=O)CC2)cc(=O)n1C [Example 33, 6-ethyl-5-[2-(4-fluoro-2,6-dimethylphenoxy)-5-(2-hydroxypropan-2-yl)phenyl]-1-methyl-4-{[trans-4-(2-oxopyrrolidin-1-yl)cyclohexyl]oxy}pyridin-2(1H)-one] | > 13000 nM |
| Cc1cc(F)cc(C)c1Oc1ccc(C(C)(C)O)cc1-c1cn(C)c(=O)cc1OC1CCC(C)(N2CCCC2=O)CC1 (stereo not drawn) [Example 34, 5-[2-(4-fluoro-2,6-dimethylphenoxy)-5-(2-hydroxypropan-2-yl)phenyl]-1-methyl-4-{[trans-4-methyl-4-(2-oxopyrrolidin-1-yl)cyclohexyl]oxy}pyridin-2(1H)-one] | 890 nM |
| Cc1cc(F)cc(C)c1Oc1ccc(C(C)(C)O)cc1-c1cn(C)c(=O)cc1O[C@H]1CC[C@H](N2CCNC2=O)CC1 [Example 35, 5-[2-(4-fluoro-2,6-dimethylphenoxy)-5-(2-hydroxypropan-2-yl)phenyl]-1-methyl-4-{[trans-4-(2-oxoimidazolidin-1-yl)cyclohexyl]oxy}pyridin-2(1H)-one] | 1810 nM |
| C=CCCCC(=O)N[C@H]1CC[C@H](Oc2cc(=O)n(C)cc2-c2cc(C(C)(C)O)ccc2Oc2c(C)cc(F)cc2C)CC1 [Example 36, N-[trans-4-({5-[2-(4-fluoro-2,6-dimethylphenoxy)-5-(2-hydroxypropan-2-yl)phenyl]-1-methyl-2-oxo-1,2-dihydropyridin-4-yl}oxy)cyclohexyl]hex-5-enamide] | 5790 nM |
| Cc1cc(F)cc(C)c1Oc1ccc(C(C)(C)O)cc1-c1cn(C)c(=O)cc1O[C@H]1CC[C@H](N2CCCCCC2=O)CC1 [Example 37, 1-[trans-4-({5-[2-(4-fluoro-2,6-dimethylphenoxy)-5-(2-hydroxypropan-2-yl)phenyl]-1-methyl-2-oxo-1,2-dihydropyridin-4-yl}oxy)cyclohexyl]azepan-2-one] | 2510 nM |
| Cc1cc(F)cc(C)c1Oc1ccc(C(C)(C)O)cc1-c1cn(C)c(=O)cc1O[C@H]1CC[C@H](N2CCOC2=O)CC1 [Example 38, 5-[2-(4-fluoro-2,6-dimethylphenoxy)-5-(2-hydroxypropan-2-yl)phenyl]-1-methyl-4-{[trans-4-(2-oxo-1,3-oxazolidin-3-yl)cyclohexyl]oxy}pyridin-2(1H)-one] | 2500 nM |
| Cc1cc(F)cc(C)c1Oc1ccc(C(C)(C)O)cc1-c1cn(C)c(=O)cc1O[C@H]1CC[C@H](N2CCCOC2=O)CC1 [Example 39, 3-[trans-4-({5-[2-(4-fluoro-2,6-dimethylphenoxy)-5-(2-hydroxypropan-2-yl)phenyl]-1-methyl-2-oxo-1,2-dihydropyridin-4-yl}oxy)cyclohexyl]-1,3-oxazinan-2-one] | 2250 nM |
| Cc1cc(F)cc(C)c1Oc1ccc(C(C)(C)O)cc1-c1cn(C)c(=O)cc1O[C@H]1CC[C@H](N2CCOCC2=O)CC1 [Example 40, 4-[trans-4-({5-[2-(4-fluoro-2,6-dimethylphenoxy)-5-(2-hydroxypropan-2-yl)phenyl]-1-methyl-2-oxo-1,2-dihydropyridin-4-yl}oxy)cyclohexyl]morpholin-3-one] | 2030 nM |
| Cc1cc(F)cc(C)c1Oc1ccc(C(C)(C)O)cc1-c1cn(C)c(=O)cc1O[C@H]1CC[C@H](N2CCCN(C)C2=O)CC1 [Example 41, 1-[trans-4-({5-[2-(4-fluoro-2,6-dimethylphenoxy)-5-(2-hydroxypropan-2-yl)phenyl]-1-methyl-2-oxo-1,2-dihydropyridin-4-yl}oxy)cyclohexyl]-3-methyltetrahydropyrimidin-2(1H)-one] | 2480 nM |
